Measurements reported in ChEMBL document CHEMBL1201862, “PubChem BioAssay data set” (2004).
Active and inactive are the calls of the source.

Tests used:
[1] = molecular target: Voltage-dependent T-type calcium channel subunit alpha-1H (Homo sapiens, UniProt O95180); assay type: functional;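 also: channel activity triggered by adding a high calcium stimulation buffer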
[2] = molecular target: T1, Carboxy-terminal domain RNA polymerase II polypeptide A small phosphatase 1 (Homo sapiens, UniProt Q9GZU7); experiment: inhibitors of CTDSP1, concentration-response testing, biochemical assay, absorbance-based, actives from ultra-high-throughput screening (AID 540297); assay type: functional
T1 sequence (Q9GZU7 whole entry): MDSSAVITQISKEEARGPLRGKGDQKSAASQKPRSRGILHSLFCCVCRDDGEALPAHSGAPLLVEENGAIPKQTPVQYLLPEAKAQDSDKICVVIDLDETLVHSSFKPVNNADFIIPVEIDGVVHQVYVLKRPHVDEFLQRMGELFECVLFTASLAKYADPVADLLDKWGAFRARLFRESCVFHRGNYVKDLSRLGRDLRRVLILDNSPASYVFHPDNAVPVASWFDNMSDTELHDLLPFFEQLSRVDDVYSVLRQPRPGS

[3] = molecular target: T2, Low molecular weight phosphotyrosine protein phosphatase (Homo sapiens, UniProt P24666); assay type: functional; conditions: read-out: IC50_Mean;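 also: Dose-response confirmation assay measuring inhibition of LMPTP enzyme activity by fluorescence intensity read-out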
T2 sequence (P24666 whole entry): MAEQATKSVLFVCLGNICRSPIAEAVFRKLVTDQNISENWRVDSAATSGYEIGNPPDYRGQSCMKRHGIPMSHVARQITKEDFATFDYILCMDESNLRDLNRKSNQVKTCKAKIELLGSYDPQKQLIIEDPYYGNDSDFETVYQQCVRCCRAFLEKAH

[4] = test system: Vero; experiment: cells; assay type: functional, cell-based; conditions: Chlorocebus sabaeus
[5] = test system: Vero; experiment: cells; assay type: functional; conditions: Chlorocebus sabaeus
[6] = molecular target: Cytochrome P450 2C19 (Homo sapiens, UniProt P33261); experiment: Cytochrome panel assay with activity outcomes. Panel member name: p450-cyp2c19 Compounds with AC50 equal or less than 10 uM are considered active; assay type: functional
[7] = molecular target: Cytochrome P450 2D6 (Homo sapiens, UniProt P10635)
[8] = molecular target: Melanocortin receptor 4 (Homo sapiens, UniProt P32245); assay type: functional, cell-based;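 also: Cell-based assay with luminescence read-out, confirmatory dose-response testing for agonist activity of biased ligands at MC4R; human U2OS cells with tagged receptor and beta-arrestin; potency of agonists that increase receptor coupling to beta-arrestin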
[9] = test system: H9c2; experiment: cells; assay type: functional, cell-based; conditions: Rattus norvegicus, H9c2, Myocardium;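 also: confirmatory concentration-response retest of ultra-high-throughput screening hits for modulation of myocardial damage; cell death induced by hydrogen peroxide oxidative stress; compound pretreatment for 60 min then peroxide exposure for 2 h; potency is for protecting the cells against peroxide damage rather than for killing them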
[10] = molecular target: Cytochrome P450 3A4 (Homo sapiens, UniProt P08684); conditions: Potency;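 also: confirmatory qHTS run detecting inhibitors and substrates of CYP3A4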
[11] = molecular target: T3, Ubiquitin-conjugating enzyme E2 N (Homo sapiens, UniProt P61088); assay type: functional;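 also: Dose-response confirmation in a TR-FRET assay detecting UBC13-driven polyubiquitin chain formation, inhibition measured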
T3 sequence (P61088 whole entry): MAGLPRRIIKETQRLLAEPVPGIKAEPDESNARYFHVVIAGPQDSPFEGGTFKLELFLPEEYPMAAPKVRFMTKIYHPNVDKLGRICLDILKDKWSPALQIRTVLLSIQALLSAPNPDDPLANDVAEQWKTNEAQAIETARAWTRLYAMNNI

[12] = inhibitors of intracellular T. cruzi replication, confirmation, NIH3T3 host cells, beta-gal luminescence (AID 2044); assay type: functional, cell-based;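 also: intracellular parasites grown in NIH/3T3 mouse fibroblasts as host cells; luminescent beta-galactosidase reporter signal from transgenic T. cruzi replicating inside host cells; inhibitors lower the luminescence signal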
[13] = cytotoxicity toward NIH3T3 fibroblasts, dose response, counter-screen, cell-based, ATP luminescence, mouse fibroblasts (AID 2010); assay type: functional;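 also: cells exposed to compound for about 90 hours before reading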
[14] = molecular target: Beta-galactosidase (Escherichia coli, UniProt Q8VNN2); experiment: beta-galactosidase enzyme inhibitors and activators, dose response, artefact control for CCR6 antagonist project, biochemical, E. coli enzyme, set 3 (AID 504712); assay type: functional
[15] = molecular target: T4, Cytochrome P450 1A2 (Homo sapiens, UniProt P05177);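 also: PubChem cytochrome P450 panel assay, CYP1A2 panel member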
T4 sequence (P05177 whole entry): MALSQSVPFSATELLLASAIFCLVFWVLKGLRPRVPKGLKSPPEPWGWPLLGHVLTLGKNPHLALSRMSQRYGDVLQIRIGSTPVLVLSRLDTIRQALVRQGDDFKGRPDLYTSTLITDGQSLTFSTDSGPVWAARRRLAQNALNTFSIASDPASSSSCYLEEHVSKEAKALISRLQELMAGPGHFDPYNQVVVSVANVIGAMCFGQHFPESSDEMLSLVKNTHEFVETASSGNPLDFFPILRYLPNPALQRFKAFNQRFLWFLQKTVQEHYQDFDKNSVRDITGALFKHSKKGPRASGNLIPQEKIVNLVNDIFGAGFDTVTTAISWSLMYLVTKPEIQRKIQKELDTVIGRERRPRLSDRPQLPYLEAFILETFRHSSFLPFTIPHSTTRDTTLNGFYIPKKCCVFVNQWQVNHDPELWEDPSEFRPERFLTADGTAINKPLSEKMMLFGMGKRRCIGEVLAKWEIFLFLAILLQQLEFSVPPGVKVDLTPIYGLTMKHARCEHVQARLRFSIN

[16] = molecular target: T5, Streptokinase A (Streptococcus pyogenes serotype M1, UniProt P10520); experiment: S. pyogenes streptokinase expression inhibitors, potency, dose response, plasminogen activation absorbance, OD405 (AID 1914); assay type: functional, Streptococcus pyogenes M1 GAS;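 also: secreted streptokinase activity via plasminogen activation per viability signal from cell pellet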
T5 sequence (P10520 whole entry): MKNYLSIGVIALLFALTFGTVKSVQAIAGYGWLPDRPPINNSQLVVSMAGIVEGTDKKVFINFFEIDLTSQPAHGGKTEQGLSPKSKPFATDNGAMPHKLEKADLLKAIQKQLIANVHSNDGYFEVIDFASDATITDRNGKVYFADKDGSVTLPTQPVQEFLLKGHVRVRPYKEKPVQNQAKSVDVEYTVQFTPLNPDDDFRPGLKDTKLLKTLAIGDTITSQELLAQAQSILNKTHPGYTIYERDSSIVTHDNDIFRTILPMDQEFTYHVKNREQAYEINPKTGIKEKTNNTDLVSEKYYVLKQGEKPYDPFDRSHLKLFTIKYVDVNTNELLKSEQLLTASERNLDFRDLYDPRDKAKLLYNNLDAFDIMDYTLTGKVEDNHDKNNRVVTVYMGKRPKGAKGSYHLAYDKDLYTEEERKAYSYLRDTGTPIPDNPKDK

[17] = test system: Streptococcus sp. 'group A'; experiment: growth inhibition of control SK(-) GAS strain, dose response, counter-screen for streptokinase expression inhibitor project, luminescence, kanamycin, BacTiterGlo, confirmation (AID 1900); assay type: functional, organism-based
[18] = test system: Streptococcus; experiment: Group A Streptococcus viability loss, dose response, counter-screen for streptokinase expression inhibitor project, luminescence, BacTiterGlo (AID 1915); assay type: functional, organism-based;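 also: potency for reduction of bacterial viability or growth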
[19] = molecular target: T6, Rac GTPase-activating protein 1 (Homo sapiens, UniProt Q9H0H5); experiment: MgcRacGAP GTPase-activating activity inhibitors, confirmation, biochemical, ADP Hunter fluorescence, primary and confirmatory (AID 624330); assay type: functional
T6 sequence (Q9H0H5 whole entry): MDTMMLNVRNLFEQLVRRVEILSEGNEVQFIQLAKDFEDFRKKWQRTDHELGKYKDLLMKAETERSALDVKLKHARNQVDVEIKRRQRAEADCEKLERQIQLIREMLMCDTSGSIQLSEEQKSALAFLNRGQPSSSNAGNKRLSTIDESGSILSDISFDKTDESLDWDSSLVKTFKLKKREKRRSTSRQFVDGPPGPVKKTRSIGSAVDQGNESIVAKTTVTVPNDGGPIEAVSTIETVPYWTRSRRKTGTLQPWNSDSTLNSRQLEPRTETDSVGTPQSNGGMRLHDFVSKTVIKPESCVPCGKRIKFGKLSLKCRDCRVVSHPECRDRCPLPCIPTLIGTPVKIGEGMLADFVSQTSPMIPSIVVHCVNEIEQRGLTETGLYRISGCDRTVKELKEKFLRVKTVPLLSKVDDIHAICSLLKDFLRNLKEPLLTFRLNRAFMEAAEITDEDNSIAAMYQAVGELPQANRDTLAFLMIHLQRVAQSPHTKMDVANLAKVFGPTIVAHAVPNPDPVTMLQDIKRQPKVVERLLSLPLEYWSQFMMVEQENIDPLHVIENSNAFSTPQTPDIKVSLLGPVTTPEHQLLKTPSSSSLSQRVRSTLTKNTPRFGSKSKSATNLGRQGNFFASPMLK

[20] = HEp-2 cell cytotoxicity, dose response, cytotoxicity control for RSV inhibitor project, HTS (AID 2410); assay type: functional; conditions: human respiratory syncytial virus
[21] = molecular target: T7, Heat shock factor protein 1 (Mus musculus, UniProt P38532); experiment: HSF1 potentiators in luciferase reporter cells, confirmation, cell-based, NIH3T3, luminescence, dose retest (AID 435004); assay type: functional;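 also: stress induced by proteasome inhibitor MG132 added 30 min after compound; luciferase reporter driven by HSF1 response element in NIH3T3 cells; actives raise luminescence as potentiators of the MG132 stress response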
T7 sequence (P38532 whole entry): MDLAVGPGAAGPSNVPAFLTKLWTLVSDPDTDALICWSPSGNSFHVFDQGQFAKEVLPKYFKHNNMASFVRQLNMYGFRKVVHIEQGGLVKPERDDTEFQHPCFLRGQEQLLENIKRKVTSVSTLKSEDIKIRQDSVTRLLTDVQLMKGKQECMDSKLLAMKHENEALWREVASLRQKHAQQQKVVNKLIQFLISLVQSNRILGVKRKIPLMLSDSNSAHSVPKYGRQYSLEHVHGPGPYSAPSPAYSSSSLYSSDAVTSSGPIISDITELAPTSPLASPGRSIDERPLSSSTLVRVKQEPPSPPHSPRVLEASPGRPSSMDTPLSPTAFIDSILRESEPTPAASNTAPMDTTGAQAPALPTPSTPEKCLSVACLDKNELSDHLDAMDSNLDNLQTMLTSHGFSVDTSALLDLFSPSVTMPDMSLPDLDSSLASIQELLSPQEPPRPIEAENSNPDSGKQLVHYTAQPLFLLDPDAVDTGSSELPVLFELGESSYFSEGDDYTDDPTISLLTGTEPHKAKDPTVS

[22] = Luminescence Cell-Based Dose Retest to Confirm Inhibitors of Cancer Stem Cells. [Related pubchem assays (depositor defined):AID2717, AID2721]; assay type: functional; conditions: Homo sapiens
[23] = molecular target: Paired box protein Pax-8 (Homo sapiens, UniProt Q06710); experiment: inhibitors of PAX8-driven TPO luciferase reporter, dose response, RMG-I cells, cherry-pick (AID 687027); assay type: functional, cell-based;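 also: luciferase reporter driven by Pax8 target thyroperoxidase promoter measured by SteadyGlo luminescence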
[24] = cytotoxicity in HEK-293T cells, dose response, cytotoxicity control for TCR NF-kB inhibitor project, luminescence, T-cell screen hits (AID 489026); assay type: functional, cell-based;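 also: cells exposed to compound about 14 hours before the viability readout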

Chain of Cytochrome P450 3A4 (P08684 whole entry): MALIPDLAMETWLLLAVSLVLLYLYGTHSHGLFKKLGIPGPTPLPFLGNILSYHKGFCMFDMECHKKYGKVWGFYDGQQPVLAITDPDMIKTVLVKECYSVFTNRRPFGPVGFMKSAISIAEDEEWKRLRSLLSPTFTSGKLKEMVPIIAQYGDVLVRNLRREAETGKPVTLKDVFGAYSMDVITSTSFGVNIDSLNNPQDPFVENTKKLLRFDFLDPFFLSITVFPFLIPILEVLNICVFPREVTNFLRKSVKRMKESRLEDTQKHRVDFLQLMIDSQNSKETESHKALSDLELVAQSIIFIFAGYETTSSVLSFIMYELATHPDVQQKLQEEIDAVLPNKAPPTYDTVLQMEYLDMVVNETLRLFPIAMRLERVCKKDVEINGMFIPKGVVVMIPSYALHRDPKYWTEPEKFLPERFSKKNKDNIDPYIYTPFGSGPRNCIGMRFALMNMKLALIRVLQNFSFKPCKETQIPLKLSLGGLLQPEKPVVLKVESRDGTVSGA
Chain of Voltage-dependent T-type calcium channel subunit alpha-1H (O95180 whole entry, the tested form may be a part): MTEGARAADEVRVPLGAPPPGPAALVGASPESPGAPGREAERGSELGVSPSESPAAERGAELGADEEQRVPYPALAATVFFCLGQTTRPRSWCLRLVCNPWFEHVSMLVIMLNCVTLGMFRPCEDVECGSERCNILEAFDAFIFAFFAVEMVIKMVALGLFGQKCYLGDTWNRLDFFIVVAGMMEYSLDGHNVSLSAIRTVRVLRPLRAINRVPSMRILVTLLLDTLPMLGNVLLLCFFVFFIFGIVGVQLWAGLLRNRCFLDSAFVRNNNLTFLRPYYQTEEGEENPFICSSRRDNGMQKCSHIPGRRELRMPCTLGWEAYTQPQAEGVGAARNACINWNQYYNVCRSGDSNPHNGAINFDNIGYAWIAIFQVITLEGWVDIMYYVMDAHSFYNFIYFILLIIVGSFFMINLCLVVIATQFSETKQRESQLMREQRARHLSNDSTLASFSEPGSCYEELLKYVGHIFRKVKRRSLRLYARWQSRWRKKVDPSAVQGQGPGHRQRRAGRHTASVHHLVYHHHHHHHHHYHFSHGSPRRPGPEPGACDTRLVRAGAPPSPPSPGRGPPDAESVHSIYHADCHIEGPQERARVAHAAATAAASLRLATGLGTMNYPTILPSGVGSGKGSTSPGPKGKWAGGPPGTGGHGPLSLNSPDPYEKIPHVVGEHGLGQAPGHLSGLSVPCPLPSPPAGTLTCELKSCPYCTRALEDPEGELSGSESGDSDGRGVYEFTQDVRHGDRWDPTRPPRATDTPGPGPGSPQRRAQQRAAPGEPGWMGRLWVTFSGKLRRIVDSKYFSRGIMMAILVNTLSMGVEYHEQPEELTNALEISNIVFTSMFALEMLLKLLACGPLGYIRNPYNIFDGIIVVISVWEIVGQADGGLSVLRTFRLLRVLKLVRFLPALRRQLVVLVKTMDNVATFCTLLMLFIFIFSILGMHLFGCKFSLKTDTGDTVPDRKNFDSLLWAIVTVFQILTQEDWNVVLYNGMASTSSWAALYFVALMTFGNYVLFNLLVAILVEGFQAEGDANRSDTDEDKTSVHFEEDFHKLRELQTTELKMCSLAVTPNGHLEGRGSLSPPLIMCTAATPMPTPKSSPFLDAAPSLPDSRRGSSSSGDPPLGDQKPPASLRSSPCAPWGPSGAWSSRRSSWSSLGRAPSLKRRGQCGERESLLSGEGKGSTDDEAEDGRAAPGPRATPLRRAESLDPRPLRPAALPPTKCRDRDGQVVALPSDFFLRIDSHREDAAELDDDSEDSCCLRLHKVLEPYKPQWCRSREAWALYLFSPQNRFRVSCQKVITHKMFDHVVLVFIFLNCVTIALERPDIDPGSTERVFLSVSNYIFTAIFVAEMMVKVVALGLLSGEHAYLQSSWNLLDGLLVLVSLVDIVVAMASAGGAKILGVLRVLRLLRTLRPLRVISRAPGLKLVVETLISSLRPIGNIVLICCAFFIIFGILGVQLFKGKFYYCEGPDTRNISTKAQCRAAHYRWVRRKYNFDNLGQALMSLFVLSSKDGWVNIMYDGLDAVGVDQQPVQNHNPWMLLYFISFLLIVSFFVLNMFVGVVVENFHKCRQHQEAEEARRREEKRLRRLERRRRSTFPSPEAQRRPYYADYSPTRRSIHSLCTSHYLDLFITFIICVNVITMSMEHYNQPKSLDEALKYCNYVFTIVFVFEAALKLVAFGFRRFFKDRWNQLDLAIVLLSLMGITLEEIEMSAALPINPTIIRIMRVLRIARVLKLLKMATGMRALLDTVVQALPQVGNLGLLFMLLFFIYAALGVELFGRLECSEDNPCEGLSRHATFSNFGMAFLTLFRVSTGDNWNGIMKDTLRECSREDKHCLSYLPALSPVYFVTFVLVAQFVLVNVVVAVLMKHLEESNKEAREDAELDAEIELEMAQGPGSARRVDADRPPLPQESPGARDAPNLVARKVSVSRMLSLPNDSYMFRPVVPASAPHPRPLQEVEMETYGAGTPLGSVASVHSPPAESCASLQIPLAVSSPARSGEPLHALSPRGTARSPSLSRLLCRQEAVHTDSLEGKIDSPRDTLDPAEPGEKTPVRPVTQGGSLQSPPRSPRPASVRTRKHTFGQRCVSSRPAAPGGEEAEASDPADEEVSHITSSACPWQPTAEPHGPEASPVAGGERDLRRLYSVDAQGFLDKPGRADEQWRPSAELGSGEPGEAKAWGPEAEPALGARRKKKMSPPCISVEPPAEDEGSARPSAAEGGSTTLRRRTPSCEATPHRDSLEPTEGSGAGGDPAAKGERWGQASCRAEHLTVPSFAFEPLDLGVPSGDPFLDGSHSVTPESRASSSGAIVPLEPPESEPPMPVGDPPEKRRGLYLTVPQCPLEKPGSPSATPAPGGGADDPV
Chain of Beta-galactosidase (Q8VNN2 whole entry): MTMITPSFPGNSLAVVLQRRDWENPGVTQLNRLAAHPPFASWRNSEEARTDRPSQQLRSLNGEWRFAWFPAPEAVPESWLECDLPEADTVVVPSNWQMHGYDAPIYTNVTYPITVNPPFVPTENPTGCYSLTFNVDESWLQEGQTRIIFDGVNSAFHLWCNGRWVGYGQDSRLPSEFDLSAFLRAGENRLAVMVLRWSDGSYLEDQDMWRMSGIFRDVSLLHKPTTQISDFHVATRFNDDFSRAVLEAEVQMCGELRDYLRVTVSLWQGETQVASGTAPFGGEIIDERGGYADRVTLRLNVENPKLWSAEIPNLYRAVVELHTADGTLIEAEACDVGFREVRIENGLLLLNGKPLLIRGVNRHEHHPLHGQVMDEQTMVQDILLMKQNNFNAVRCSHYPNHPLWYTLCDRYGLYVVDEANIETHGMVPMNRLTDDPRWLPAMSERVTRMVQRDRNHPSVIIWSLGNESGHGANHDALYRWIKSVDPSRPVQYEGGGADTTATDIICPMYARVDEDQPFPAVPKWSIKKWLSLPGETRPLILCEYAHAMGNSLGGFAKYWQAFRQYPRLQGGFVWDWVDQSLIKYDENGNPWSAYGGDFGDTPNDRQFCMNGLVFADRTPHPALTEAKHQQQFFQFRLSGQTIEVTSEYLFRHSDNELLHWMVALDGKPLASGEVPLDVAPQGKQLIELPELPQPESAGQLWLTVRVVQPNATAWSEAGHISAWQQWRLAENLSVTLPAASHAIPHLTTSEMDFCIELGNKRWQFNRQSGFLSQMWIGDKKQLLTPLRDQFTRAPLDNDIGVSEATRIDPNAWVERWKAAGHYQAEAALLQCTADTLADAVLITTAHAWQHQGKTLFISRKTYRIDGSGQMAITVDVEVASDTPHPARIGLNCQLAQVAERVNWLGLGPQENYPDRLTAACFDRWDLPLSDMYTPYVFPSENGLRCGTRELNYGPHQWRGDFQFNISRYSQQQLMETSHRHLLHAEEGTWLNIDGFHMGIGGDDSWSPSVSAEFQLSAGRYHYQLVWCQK
Chain of Melanocortin receptor 4 (P32245 whole entry): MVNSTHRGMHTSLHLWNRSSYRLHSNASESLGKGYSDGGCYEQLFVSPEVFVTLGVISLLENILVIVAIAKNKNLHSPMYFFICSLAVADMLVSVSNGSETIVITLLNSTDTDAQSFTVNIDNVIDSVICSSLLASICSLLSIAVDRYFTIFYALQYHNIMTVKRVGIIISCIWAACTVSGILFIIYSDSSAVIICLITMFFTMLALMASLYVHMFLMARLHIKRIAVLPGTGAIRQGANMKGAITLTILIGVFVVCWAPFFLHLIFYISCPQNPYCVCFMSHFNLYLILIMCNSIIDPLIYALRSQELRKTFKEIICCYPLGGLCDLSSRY
Chain of Cytochrome P450 2D6 (P10635 whole entry): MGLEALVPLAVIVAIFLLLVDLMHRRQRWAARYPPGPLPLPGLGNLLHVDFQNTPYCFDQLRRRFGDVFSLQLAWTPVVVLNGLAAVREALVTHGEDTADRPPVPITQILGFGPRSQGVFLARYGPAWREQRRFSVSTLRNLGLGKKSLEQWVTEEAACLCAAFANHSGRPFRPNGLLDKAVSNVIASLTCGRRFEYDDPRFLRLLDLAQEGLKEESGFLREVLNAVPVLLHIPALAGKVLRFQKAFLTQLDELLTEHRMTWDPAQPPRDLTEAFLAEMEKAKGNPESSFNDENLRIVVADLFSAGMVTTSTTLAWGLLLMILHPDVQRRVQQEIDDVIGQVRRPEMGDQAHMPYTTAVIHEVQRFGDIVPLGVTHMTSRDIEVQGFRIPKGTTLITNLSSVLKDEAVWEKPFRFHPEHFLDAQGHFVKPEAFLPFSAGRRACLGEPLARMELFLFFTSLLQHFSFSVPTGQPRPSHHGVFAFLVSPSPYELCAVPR

With `Fc1ccc(Cn2nnnc2C(c2ccc(Cl)cc2)N2CCSCC2)cc1` (centres undefined) the EC50 [1] was 9.78 µM (active).
With `COC(=O)COc1ccc2oc(=O)cc(-c3cc4cccc(OC)c4o3)c2c1` the IC50 [2] was 9.43 µM (active) and the IC50 [3] was 19.1 µM (active).
For `COc1ccc(/C=C2\SC(=S)N(CCC(=O)NCCc3ccc(O)cc3)C2=O)cc1`, the IC50 [4] was > 25 µM (active) and the CC50 [5] was > 25 µM (active).
With `O=S(=O)(NCCc1csc(-c2ccccc2)n1)c1ccc2c(c1)OCCO2` the EC50 [1] was 23.2 µM (active).
In the case of `Cc1c(Cl)c(S(N)(=O)=O)cc(S(N)(=O)=O)c1NC(=O)c1ccc(Cl)cc1`, the AC50 [6] is reported as “inconclusive” and the AC50 [7] is reported as “inconclusive”.
With `COc1ccc(-c2cc(NC(C)=O)c3ncc(-c4cccc(C(C)=O)c4)n3c2)cc1OC` the EC50 [8] was > 89.2 µM (inactive) and the IC50 [9] was > 79 µM (inactive).
With `CC(=O)Nc1cc(-c2cccc(F)c2)cn2c(-c3ccc(F)c(Cl)c3)cnc12` the EC50 [8] was > 89.2 µM (inactive).
In the case of `CC(=O)Oc1ccc2c(c1C(C)C)CCC1C(C)(C)CCC[C@@]21C` (some centres undefined), the AC50 [10] is reported as 39.8 µM (inconclusive).
With `N=C(N)N/N=C/c1ccc2cccc(OCc3ccccc3)c2n1` the IC50 [11] was > 20 µM (inactive), the EC50 [12] was 0.685 µM (active) and the EC50 [13] was > 60 µM (not active). The IC50 [14] was > 66.6 µM (inactive).
With `O=C(N/N=C/C=C/c1ccccc1)c1cc2c(ccc3ccccc32)o1` the AC50 [15] was 0.0447 µM (inconclusive) and the IC50 [3] was 9.73 µM (active).
With `CC(=O)N1c2ccc(S(=O)(=O)N3CCCC(C(=O)Nc4cccc(Cl)c4)C3)cc2CC1C` (centres undefined) the IC50 [14] was > 66.6 µM (inactive).
In the case of `CO[C@@H]1COC(=O)CC=C[C@@H](C)[C@@H]2C=C[C@H](O)[C@@H](COC(=O)[C@H](C)NC(=O)CC=C[C@H]1C)O2`, the AC50 [7] is reported as “inconclusive”.
In the case of `Cc1ccc2nc(N3C(=O)CNC3=S)sc2c1`, the EC50 [16] is reported as > 150 µM (not active), the EC50 [17] is reported as 4.9 µM (active) and the IC50 [14] is reported as > 66.6 µM (inactive). The EC50 [18] was 11.2 µM (active).
With `O=C1CC(N2CCN(c3ccccn3)CC2)C(=O)N1CC(c1ccccc1)c1ccccc1` (centres undefined) the EC50 [1] was 5.85 µM (active).
With `COC(=O)[C@@H]1C[C@H]2CC[C@H](O)C[C@H]2N1Cc1ccc(C)s1` the AC50 [10] was 15.8 µM (inconclusive).
With `COc1ccc(CCn2c(=N)c(C(=O)NCc3ccco3)cc3c(=O)n4ccccc4nc32)cc1` the AC50 [15] was 15.8 µM (inconclusive) and the IC50 [3] was 25.7 µM (inactive).
For `FC(F)(F)c1ccc(CN2C[C@@H]3C(c4ccc(Cl)nc4)C4(c5ccccc5)CC3(C4)[C@H]2c2ccccc2)cc1` (some centres undefined), the AC50 [10] was 20 µM (inconclusive).
In the case of `O=C(O)[C@@H](c1ccccc1)[C@@H](C(=O)O)c1ccccc1`, the AC50 [7] is reported as “inconclusive”.
For `Cc1cc(C)nc(Nc2nc(C(N)Cc3ccc(Cl)cc3)cs2)n1` (centres undefined), the EC50 [8] was > 89.2 µM (inactive).
With `C[C@]12CC[C@H]3C(=CCc4cc(O)ccc43)[C@@H]1CCC2=O` [EQUILIN] the IC50 [19] was 94.6 µM (active), the CC50 [20] was 22.6 µM (active) and the AC50 [10] was 39.8 µM (inconclusive).
In the case of `Sc1nnc(-c2ccccc2)n1/N=C/c1ccc(-c2ccccc2Cl)o1`, the IC50 [4] is reported as 2.17 µM (active), the EC50 [21] is reported as > 260 µM (inactive) and the AC50 [22] is reported as 4 µM (active).
With `CN1CCc2c(sc3c2c(=O)n(-c2ccccc2)c2nncn32)C1` the AC50 [7] was “inconclusive”.
With `C[C@]12CC[C@H](O)C[C@H]1CC[C@@H]1[C@@H]2CC[C@]2(C)[C@@H](C3=CC(=O)OC3)CC[C@]12O` [DIGITOXIGENIN] the IC50 [4] was < 0.05 µM (active), the AC50 [23] was 1.38 µM (active) and the CC50 [5] was 1.45 µM (active). For the same compound, the IC50 [24] was > 80 µM (inactive) and the AC50 [22] was 0.467 µM (active).
In the case of `Cc1nc(NC2CCCCC2)c2nc(-c3ccccc3)n(CCCN3CCOCC3)c2n1`, the AC50 [10] is reported as 5.01 µM (inconclusive).
